The record followed here is patent US9809574B2, “Isoindoline or isoquinoline compounds, a process for their preparation and pharmaceutical compositions containing them” (LES LABORATOIRES SERVIER, priority 2013, dated 2017).

Structures can show the parent of a compound that is named as a salt.

One experiment has as its target Bcl-2 protein (histag-Bcl-2, UniProtKB P10415) (Homo sapiens (Human), UniProt P10415). The experiment in a line: Inhibition of Bcl-2 by the fluorescence polarisation technique. In kind it is binding. The note with it: fluorescence polarisation test; incubation for 2 hours; read-out: IC50 (nM) Bcl-2 FP. The text has this: For partial inhibitors, the percentage fluorescence polarisation inhibition for a given concentration of the test compound is indicated.
(In general: Fluorescence polarisation rises when a labelled molecule tumbles more slowly, as on binding a larger partner.)

In experiment [1] the test system is RS4; 11 leukaemia cell line. Put plainly: In vitro cytotoxicity, Microculture Tetrazolium Assay (MTT). Format: cell-based. The following applies: Homo sapiens, 11 cells exposed for 48 hours. As to the method:
The cytotoxicity studies were carried out on the RS4; 11 leukaemia cell line and on H146 small Cell Lung Carcinoma cell line. The cells are distributed onto microplates and exposed to the test compounds for 48 hours. The cell viability is then quantified by a colorimetric assay, the Microculture Tetrazolium Assay (Cancer Res., 1987, 47, 939-942).

Chain of Bcl-2 protein (P10415 whole entry): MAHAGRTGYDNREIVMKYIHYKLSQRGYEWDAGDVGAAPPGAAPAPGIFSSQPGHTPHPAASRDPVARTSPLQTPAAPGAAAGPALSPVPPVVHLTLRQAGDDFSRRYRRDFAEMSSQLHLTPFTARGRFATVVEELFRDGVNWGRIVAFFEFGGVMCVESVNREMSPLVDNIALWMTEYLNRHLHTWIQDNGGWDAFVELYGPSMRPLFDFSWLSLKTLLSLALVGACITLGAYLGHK

By IC50 is commonly meant the point on the concentration scale where inhibition reaches its midpoint. As for `CCCCN(CCCC)C(=O)c1cc(-c2cc3c(cc2C(=O)N2Cc4ccccc4C[C@H]2C)CN(C(=O)Oc2ccccc2)CC3)n(C)c1C` [Example 163, Phenyl 6-[4-(dibutylcarbamoyl)-1,5-dimethyl-1H-pyrrol-2-yl]-7-[(3R)-3-methyl-1,2,3,4-tetrahydroisoquinoline-2-carbonyl]-1,2,3,4-tetrahydroisoquinoline-2-carboxylate], the results for the IC50 (on Bcl-2 protein; in experiment [1]) were 27 nM and above 150 nM, respectively.
Take `C[C@@H]1Cc2ccccc2CN1C(=O)c1cc2c(cc1-c1cc(C(=O)N(c3ccc(O)cc3)c3cnc4c(ccn4C)c3)c3n1CCCC3)CN(C(=O)COc1ccccc1)C2` [Example 158, N-(4-Hydroxyphenyl)-3-{6-[(3R)-3-methyl-1,2,3,4-tetrahydroisoquinoline-2-carbonyl]-2-(2-phenoxyacetyl)-2,3-dihydro-1H-isoindol-5-yl}-N-{1-methyl-1H-pyrrolo[2,3-b]pyridin-5-yl}-5,6,7,8-tetrahydroindolizine-1-carboxamide]: the IC50 was 4.6 nM on Bcl-2 protein and 3.5 nM in experiment [1].
Turning to `Cc1c(C(=O)N(C)c2ccc(O)cc2)cc(-c2cc3c(cc2C(=O)N2Cc4ccccc4C[C@H]2CN2CCOCC2)CN(C(=O)OC2CCCC2)CC3)n1C` [Example 796, Cyclopentyl 6-{4-[(4-hydroxyphenyl)(methyl)carbamoyl]-1,5-dimethyl-1H-pyrrol-2-yl}-7-[(3S)-3-(morpholin-4-ylmethyl)-1,2,3,4-tetrahydroisoquinoline-2-carbonyl]-1,2,3,4-tetrahydroisoquinoline-2-carboxylate], the IC50 was found to be 6.2 nM at Bcl-2 protein and 48 nM in experiment [1].
In the case of `C[C@@H]1Cc2ccccc2CN1C(=O)c1cc2c(cc1-c1cc(C(=O)N(C)c3ccc(O)cc3)c3n1CCCC3)CCN(C(=O)c1ccccc1)C2` [Example 35, 3-{2-Benzoyl-7-[(3R)-3-methyl-1,2,3,4-tetrahydroisoquinoline-2-carbonyl]-1,2,3,4-tetrahydroisoquinolin-6-yl}-N-(4-hydroxyphenyl)-N-methyl-5,6,7,8-tetrahydroindolizine-1-carboxamide], the IC50 amounted to 4.7 nM on Bcl-2 protein and 8.5 nM in experiment [1].
Regarding `Cc1c(C(=O)N(C)c2ccc(O)cc2)cc(-c2cc3c(cc2C(=O)N2Cc4ccccc4C[C@H]2CN2CCOCC2)CN(C(=O)Oc2ccc4ccccc4c2)CC3)n1C` [Example 574, Naphthalen-2-yl 6-{4-[(4-hydroxyphenyl)(methyl)carbamoyl]-1,5-dimethyl-1H-pyrrol-2-yl}-7-[(3S)-3-(morpholin-4-ylmethyl)-1,2,3,4-tetrahydroisoquinoline-2-carbonyl]-1,2,3,4-tetrahydroisoquinoline-2-carboxylate], the IC50 at Bcl-2 protein turned out to be 8.8 nM; in experiment [1], 11 nM.
The matching figures for `C[C@@H]1Cc2ccccc2CN1C(=O)c1cc2c(cc1-c1cc(C(=O)N(C)c3ccc(O)cc3)c3n1CCCC3)CCN(C(=O)C1(c3ccccc3)CC1)C2` [Example 109, N-(4-Hydroxyphenyl)-N-methyl-3-{7-[(3R)-3-methyl-1,2,3,4-tetrahydroisoquinoline-2-carbonyl]-2-(1-phenylcyclopropanecarbonyl)-1,2,3,4-tetrahydroisoquinolin-6-yl}-5,6,7,8-tetrahydroindolizine-1-carboxamide]: 8.6 nM and 89 nM.
As to `Cc1cccc(OC(=O)N2CCc3cc(-c4cc(C(=O)N(C)c5ccc(O)cc5)c5n4CCCC5)c(C(=O)N4Cc5ccccc5C[C@H]4CN4CCOCC4)cc3C2)c1` [Example 99, 3-Methylphenyl 6-{1-[(4-hydroxyphenyl)(methyl)carbamoyl]-5,6,7,8-tetrahydroindolizin-3-yl}-7-[(3S)-3-(morpholin-4-ylmethyl)-1,2,3,4-tetrahydroisoquinoline-2-carbonyl]-1,2,3,4-tetrahydroisoquinoline-2-carboxylate], the IC50 at Bcl-2 protein worked out at 5.5 nM; in experiment [1] it was 13 nM.
Turning to `C[C@@H]1Cc2ccccc2CN1C(=O)c1cc2c(cc1-c1cc(C(=O)N(C)c3ccc(O)cc3)c3n1CCCC3)CCN(C(=O)Cc1ccc(CN3CCOCC3)cc1)C2` [Example 129, N-(4-Hydroxyphenyl)-N-methyl-3-{7-[(3R)-3-methyl-1,2,3,4-tetrahydroisoquinoline-2-carbonyl]-2-{2-[4-(morpholin-4-ylmethyl)phenyl]acetyl}-1,2,3,4-tetrahydroisoquinolin-6-yl}-5,6,7,8-tetrahydroindolizine-1-carboxamide], the results for the concentration for half-maximal inhibition (IC50) (on Bcl-2 protein; in experiment [1]) were 3.3 nM and 39 nM, respectively.
Consider `CN(C(=O)c1cc(-c2cc3c(cc2C(=O)N2Cc4ccccc4C[C@H]2CN2CCOCC2)CN(C(=O)Oc2ccc(Cl)cc2)CC3)n2c1CCCC2)c1ccc(O)cc1` [Example 122, 4-Chlorophenyl 6-{1-[(4-hydroxyphenyl)(methyl)carbamoyl]-5,6,7,8-tetrahydroindolizin-3-yl}-7-[(3S)-3-(morpholin-4-ylmethyl)-1,2,3,4-tetrahydroisoquinoline-2-carbonyl]-1,2,3,4-tetrahydroisoquinoline-2-carboxylate], for which the 50% inhibitory concentration (IC50) amounted to 2.6 nM at Bcl-2 protein and 5.4 nM in experiment [1].
`COc1ccc(CCCN2Cc3cc(C(=O)N4Cc5ccccc5C[C@H]4C)c(-c4cc(C(=O)N(C)c5ccc(O)cc5)c(C)n4C)cc3C2)cc1` [Example 116, N-(4-Hydroxyphenyl)-5-{2-[3-(4-methoxyphenyl)propyl]-6-[(3R)-3-methyl-1,2,3,4-tetrahydroisoquinoline-2-carbonyl]-2,3-dihydro-1H-isoindol-5-yl}-N,1,2-trimethyl-1H-pyrrole-3-carboxamide]: the figures for the IC50 (at Bcl-2 protein; in experiment [1]) were 21 nM and 181 nM, respectively.
For `Cc1c(C(=O)N(C)c2ccc(O)cc2)cc(-c2cc3c(cc2C(=O)N2Cc4ccccc4C[C@H]2CN2CCOCC2)CN(C(=O)Oc2ccc(Br)cc2)CC3)n1C` [Example 784, 4-Bromophenyl 6-{4-[(4-hydroxyphenyl)(methyl)carbamoyl]-1,5-dimethyl-1H-pyrrol-2-yl}-7-[(3S)-3-(morpholin-4-ylmethyl)-1,2,3,4-tetrahydroisoquinoline-2-carbonyl]-1,2,3,4-tetrahydroisoquinoline-2-carboxylate] the same measures were 5.1 nM and 2.9 nM.
For the compound `Cc1c(C(=O)N(C)c2ccc(O)cc2)cc(-c2cc3c(cc2C(=O)N2Cc4ccccc4C[C@H]2CN2CCOCC2)CN(C(=O)Cc2ccccc2)CC3)n1C` [Example 89, N-(4-Hydroxyphenyl)-N,1,2-trimethyl-5-{7-[(3S)-3-(morpholin-4-ylmethyl)-1,2,3,4-tetrahydroisoquinoline-2-carbonyl]-2-(2-phenylacetyl)-1,2,3,4-tetrahydroisoquinolin-6-yl}-1H-pyrrole-3-carboxamide], the concentration for half-maximal inhibition (IC50) is 3.5 nM on Bcl-2 protein and 24 nM in experiment [1].
Take `Cc1c(C(=O)N(C)c2ccc(O)cc2)cc(-c2cc3c(cc2C(=O)N2Cc4ccccc4C[C@H]2C)CN(C(=O)Oc2ccccc2)C3)n1C` [Example 63, Phenyl 5-{4-[(4-hydroxyphenyl)(methyl)carbamoyl]-1,5-dimethyl-1H-pyrrol-2-yl}-6-[(3R)-3-methyl-1,2,3,4-tetrahydroisoquinoline-2-carbonyl]-2,3-dihydro-1H-isoindole-2-carboxylate]: the figures for the IC50 (on Bcl-2 protein; in experiment [1]) were 4.4 nM and 12 nM, respectively.
`C[C@H](C(=O)N1CCc2cc(-c3cc(C(=O)N(C)c4ccc(O)cc4)c4n3CCCC4)c(C(=O)N3Cc4ccccc4C[C@H]3C)cc2C1)c1ccccc1` [Example 90, N-(4-Hydroxyphenyl)-N-methyl-3-{7-[(3R)-3-methyl-1,2,3,4-tetrahydroisoquinoline-2-carbonyl]-2-[(2S)-2-phenylpropanoyl]-1,2,3,4-tetrahydroisoquinolin-6-yl}-5,6,7,8-tetrahydroindolizine-1-carboxamide]: the results for the IC50 (at Bcl-2 protein; in experiment [1]) were 6.2 nM and 39 nM, respectively.
Consider `Cc1c(C(=O)N(C)c2ccc(O)cc2)cc(-c2cc3c(cc2C(=O)N2Cc4ccccc4C[C@H]2CCN2CCOCC2)CN(C(=O)OC2CCCCC2)CC3)n1C` [Example 807, Cyclohexyl 6-{4-[(4-hydroxyphenyl)(methyl)carbamoyl]-1,5-dimethyl-1H-pyrrol-2-yl}-7-[(3S)-3-[2-(morpholin-4-yl)ethyl]-1,2,3,4-tetrahydroisoquinoline-2-carbonyl]-1,2,3,4-tetrahydroisoquinoline-2-carboxylate], for which the IC50 came out at 3.9 nM at Bcl-2 protein and 26 nM in experiment [1].
The matching figures for `Cc1c(C(=O)N(C)c2ccc(O)cc2)cc(-c2cc3c(cc2C(=O)N2Cc4ccccc4C[C@H]2CN2CCOCC2)CN(C(=O)CC24CC5CC(CC(C5)C2)C4)CC3)n1C` [Example 798, 5-{2-[2-(Adamantan-1-yl)acetyl]-7-[(3S)-3-(morpholin-4-ylmethyl)-1,2,3,4-tetrahydroisoquinoline-2-carbonyl]-1,2,3,4-tetrahydroisoquinolin-6-yl}-N-(4-hydroxyphenyl)-N,1,2-trimethyl-1H-pyrrole-3-carboxamide]: 9.1 nM and 76 nM.
Turning to `CC(=O)N1Cc2cc(C(=O)N3Cc4ccccc4C[C@H]3C)c(-c3cc(C(=O)N(C)c4ccc(O)cc4)c(C)n3C)cc2C1` [Example 112, 5-{2-Acetyl-6-[(3R)-3-methyl-1,2,3,4-tetrahydroisoquinoline-2-carbonyl]-2,3-dihydro-1H-isoindol-5-yl}-N-(4-hydroxyphenyl)-N,1,2-trimethyl-1H-pyrrole-3-carboxamide], the IC50 came out at 42 nM on Bcl-2 protein and 394 nM in experiment [1].
As for `C[C@@H]1Cc2ccccc2CN1C(=O)c1cc2c(cc1-c1cc(C(=O)N(C)c3ccc(O)cc3)c3n1CCCC3)CCN(C(=O)Cc1ccc(NCCN(C)C)cc1)C2` [Example 108, 3-{2-[2-(4-{[2-(Dimethylamino)ethyl]amino}phenyl)acetyl]-7-[(3R)-3-methyl-1,2,3,4-tetrahydroisoquinoline-2-carbonyl]-1,2,3,4-tetrahydroisoquinolin-6-yl}-N-(4-hydroxyphenyl)-N-methyl-5,6,7,8-tetrahydroindolizine-1-carboxamide hydrochloride], the IC50 at Bcl-2 protein is 2.7 nM; in experiment [1], 15 nM.
